± gives the expanded uncertainty stated by the source.
Assay: xn = mol fraction of the nth substance listed
Details: for speed of sound: 100 kPa, Pulse-echo method; for speed of sound / viscosity / mass density: Liquid; for viscosity / mass density: 101 kPa; for viscosity: Concentric cylinders viscometry; for mass density: Vibrating tube method; for surface tension liquid-gas: 294.7 K, Drop volume

CC(CC(C)(C)C)CC(C)(C)CC(C)(C)C (stereo not given) [2,2,4,4,6,8,8-heptamethylnonane] + CCCCCCCCCCCC
Details | mass density [kg/m3] | speed of sound [m/s] | viscosity [mPa·s]
293.15 K, x1 = 0.103 | 753.263 ± 1 | 1295.6 ± 1.4 | 1.59 ± 0.02
293.15 K, x1 = 0.1677 | 756.137 ± 1 | 1294.1 ± 1.4 | 1.67 ± 0.02
293.15 K, x1 = 0.2944 | 761.09 ± 1 | 1292 ± 1.5 | 1.84 ± 0.022
293.15 K, x1 = 0.4191 | 765.497 ± 1.1 | 1290.5 ± 1.7 | 2.03 ± 0.023
293.15 K, x1 = 0.5011 | 768.604 ± 1.1 | 1289.5 ± 1.7 | 2.19 ± 0.025
293.15 K, x1 = 0.5955 | 771.819 ± 1.1 | 1288.5 ± 1.8 | 2.4 ± 0.027
293.15 K, x1 = 0.7585 | 777.128 ± 1.1 | 1287.2 ± 2 | 2.83 ± 0.032
293.15 K, x1 = 0.8985 | 781.527 ± 1.1 | 1286.3 ± 2.1 | 3.29 ± 0.037
293.15 K, x1 = 1 | 784.457 ± 1.1 | 1285.7 ± 2.2 | 3.7 ± 0.043
303.15 K, x1 = 0.103 | 746.092 ± 1 | 1257.5 ± 1.4 | 1.32 ± 0.019
303.15 K, x1 = 0.1677 | 749.065 ± 1 | 1256.2 ± 1.4 | 1.39 ± 0.019
303.15 K, x1 = 0.2944 | 754.068 ± 1 | 1254.3 ± 1.5 | 1.53 ± 0.02
303.15 K, x1 = 0.4191 | 758.54 ± 1.1 | 1252.9 ± 1.7 | 1.67 ± 0.022
303.15 K, x1 = 0.5011 | 761.702 ± 1.1 | 1252 ± 1.7 | 1.8 ± 0.023
303.15 K, x1 = 0.5955 | 764.964 ± 1.1 | 1251 ± 1.8 | 1.95 ± 0.024
303.15 K, x1 = 0.7585 | 770.346 ± 1.1 | 1249.8 ± 1.9 | 2.28 ± 0.028
303.15 K, x1 = 0.8985 | 774.79 ± 1.1 | 1248.9 ± 2.1 | 2.62 ± 0.032
303.15 K, x1 = 1 | 777.761 ± 1.1 | 1248.5 ± 2.2 | 2.92 ± 0.035
313.15 K, x1 = 0.103 | 738.895 ± 1 | 1219.8 ± 1.4 | 1.12 ± 0.018
313.15 K, x1 = 0.1677 | 741.921 ± 1 | 1218.7 ± 1.4 | 1.17 ± 0.019
313.15 K, x1 = 0.2944 | 747.011 ± 1 | 1217 ± 1.5 | 1.28 ± 0.019
313.15 K, x1 = 0.4191 | 751.556 ± 1.1 | 1215.7 ± 1.6 | 1.4 ± 0.02
313.15 K, x1 = 0.5011 | 754.77 ± 1.1 | 1214.9 ± 1.7 | 1.5 ± 0.021
313.15 K, x1 = 0.5955 | 758.085 ± 1.1 | 1214.1 ± 1.8 | 1.63 ± 0.022
313.15 K, x1 = 0.7585 | 763.538 ± 1.1 | 1213 ± 1.9 | 1.88 ± 0.025
313.15 K, x1 = 0.8985 | 768.028 ± 1.1 | 1212.2 ± 2.1 | 2.14 ± 0.028
313.15 K, x1 = 1 | 771.044 ± 1.1 | 1211.8 ± 2.2 | 2.37 ± 0.03
323.15 K, x1 = 0.103 | 731.669 ± 1 | 1182.8 ± 1.4 | 0.966 ± 0.018
323.15 K, x1 = 0.1677 | 734.749 ± 1 | 1181.8 ± 1.4 | 1.01 ± 0.018
323.15 K, x1 = 0.2944 | 739.926 ± 1 | 1180.3 ± 1.5 | 1.1 ± 0.019
323.15 K, x1 = 0.4191 | 744.546 ± 1.1 | 1179.2 ± 1.6 | 1.19 ± 0.019
323.15 K, x1 = 0.5011 | 747.812 ± 1.1 | 1178.5 ± 1.7 | 1.27 ± 0.02
323.15 K, x1 = 0.5955 | 751.18 ± 1.1 | 1177.8 ± 1.8 | 1.37 ± 0.021
323.15 K, x1 = 0.7585 | 756.708 ± 1.1 | 1176.8 ± 1.9 | 1.57 ± 0.023
323.15 K, x1 = 0.8985 | 761.266 ± 1.1 | 1176.3 ± 2.1 | 1.77 ± 0.025
323.15 K, x1 = 1 | 764.316 ± 1.1 | 1176 ± 2.2 | 1.95 ± 0.027
333.15 K, x1 = 0.103 | 724.407 ± 1 | 1146.3 ± 1.4 | 0.84 ± 0.018
333.15 K, x1 = 0.1677 | 727.54 ± 1 | 1145.4 ± 1.4 | 0.877 ± 0.018
333.15 K, x1 = 0.2944 | 732.805 ± 1 | 1144.2 ± 1.5 | 0.95 ± 0.018
333.15 K, x1 = 0.4191 | 737.503 ± 1.1 | 1143.3 ± 1.6 | 1.03 ± 0.019
333.15 K, x1 = 0.5011 | 740.821 ± 1.1 | 1142.7 ± 1.7 | 1.09 ± 0.019
333.15 K, x1 = 0.5955 | 744.244 ± 1.1 | 1142.2 ± 1.8 | 1.17 ± 0.02
333.15 K, x1 = 0.7585 | 749.858 ± 1.1 | 1141.4 ± 1.9 | 1.33 ± 0.021
333.15 K, x1 = 0.8985 | 754.484 ± 1.1 | 1141 ± 2.1 | 1.49 ± 0.023
333.15 K, x1 = 1 | 757.571 ± 1.1 | 1140.8 ± 2.2 | 1.63 ± 0.024
343.15 K, x1 = 0.103 | 717.1 ± 1 | – | 0.738 ± 0.017
343.15 K, x1 = 0.1677 | 720.2 ± 1 | – | 0.769 ± 0.018
343.15 K, x1 = 0.2944 | 725.6 ± 1 | – | 0.83 ± 0.018
343.15 K, x1 = 0.4191 | 730.4 ± 1.1 | – | 0.895 ± 0.018
343.15 K, x1 = 0.5011 | 733.7 ± 1.1 | – | 0.949 ± 0.019
343.15 K, x1 = 0.5955 | 737.2 ± 1.1 | – | 1.01 ± 0.019
343.15 K, x1 = 0.7585 | 743 ± 1.1 | – | 1.14 ± 0.02
343.15 K, x1 = 0.8985 | 747.6 ± 1.1 | – | 1.27 ± 0.021
343.15 K, x1 = 1 | 750.7 ± 1.1 | – | 1.39 ± 0.022
353.15 K, x1 = 0.103 | 709.6 ± 1 | – | 0.654 ± 0.017
353.15 K, x1 = 0.1677 | 712.7 ± 1 | – | 0.681 ± 0.017
353.15 K, x1 = 0.2944 | 718.2 ± 1 | – | 0.732 ± 0.018
353.15 K, x1 = 0.4191 | 723.1 ± 1.1 | – | 0.787 ± 0.018
353.15 K, x1 = 0.5011 | 726.5 ± 1.1 | – | 0.832 ± 0.018
353.15 K, x1 = 0.5955 | 730.1 ± 1.1 | – | 0.885 ± 0.019
353.15 K, x1 = 0.7585 | 736 ± 1.1 | – | 0.994 ± 0.019
353.15 K, x1 = 0.8985 | 740.7 ± 1.1 | – | 1.1 ± 0.02
353.15 K, x1 = 1 | 743.8 ± 1.1 | – | 1.19 ± 0.021
363.15 K, x1 = 0.103 | 702 ± 1 | – | 0.585 ± 0.017
363.15 K, x1 = 0.1677 | 705.3 ± 1 | – | 0.608 ± 0.017
363.15 K, x1 = 0.2944 | 710.8 ± 1 | – | 0.652 ± 0.017
363.15 K, x1 = 0.4191 | 715.8 ± 1.1 | – | 0.698 ± 0.018
363.15 K, x1 = 0.5011 | 719.2 ± 1.1 | – | 0.737 ± 0.018
363.15 K, x1 = 0.5955 | 722.9 ± 1.1 | – | 0.782 ± 0.018
363.15 K, x1 = 0.7585 | 728.9 ± 1.1 | – | 0.873 ± 0.019
363.15 K, x1 = 0.8985 | 733.6 ± 1.1 | – | 0.963 ± 0.019
363.15 K, x1 = 1 | 736.8 ± 1.1 | – | 1.04 ± 0.02
373.15 K, x1 = 0.103 | 694.5 ± 1 | – | 0.528 ± 0.017
373.15 K, x1 = 0.1677 | 697.8 ± 1 | – | 0.548 ± 0.017
373.15 K, x1 = 0.2944 | 703.5 ± 1 | – | 0.586 ± 0.017
373.15 K, x1 = 0.4191 | 708.5 ± 1 | – | 0.626 ± 0.017
373.15 K, x1 = 0.5011 | 712 ± 1.1 | – | 0.659 ± 0.018
373.15 K, x1 = 0.5955 | 715.8 ± 1.1 | – | 0.697 ± 0.018
373.15 K, x1 = 0.7585 | 721.8 ± 1.1 | – | 0.775 ± 0.018
373.15 K, x1 = 0.8985 | 726.6 ± 1.1 | – | 0.85 ± 0.019
373.15 K, x1 = 1 | 729.9 ± 1.1 | – | 0.914 ± 0.019

Details | surface tension liquid-gas [mN/m]
x1 = 0.1677 | 24.8 ± 0.3
x1 = 0.2944 | 24.9 ± 0.3
x1 = 0.4191 | 24.6 ± 0.3
x1 = 0.5011 | 24.6 ± 0.3
x1 = 0.5955 | 24.3 ± 0.3
x1 = 0.7585 | 24.2 ± 0.3
x1 = 0.8985 | 24.2 ± 0.3
x1 = 1 | 24 ± 0.3

From the NIST ThermoML archive (doi:10.1021/je5000132)
